Test results published in patent publication US8222254B2, “1, 2, 4-triazole derivatives as serotonergic modulators” (Prosarix Limited, priority 2007, dated 2012).

Experiments:
[1] = target: T1, 5HT1A (Homo sapiens, UniProt P08908); assay: GTPγS assay for 5HT1A agonist activity; type: biochemical; details: bound [35S]GTPγS relative to serotonin response
T1 construct: expressed in transfected cells; host or cells: CHO cells (Chinese hamster)
T1 sequence (P08908 1-422): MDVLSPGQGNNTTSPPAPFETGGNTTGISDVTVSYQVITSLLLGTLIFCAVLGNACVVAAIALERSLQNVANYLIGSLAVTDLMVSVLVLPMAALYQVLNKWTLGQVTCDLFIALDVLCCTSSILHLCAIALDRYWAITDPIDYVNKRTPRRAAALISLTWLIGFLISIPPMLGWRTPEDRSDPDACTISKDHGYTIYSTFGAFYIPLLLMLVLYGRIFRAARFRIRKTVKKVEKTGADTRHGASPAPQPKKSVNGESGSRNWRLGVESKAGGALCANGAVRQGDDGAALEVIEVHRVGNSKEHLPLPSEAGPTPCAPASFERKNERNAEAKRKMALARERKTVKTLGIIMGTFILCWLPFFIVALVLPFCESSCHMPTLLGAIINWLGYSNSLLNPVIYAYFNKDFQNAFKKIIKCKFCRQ
Procedure: Selected compounds were tested for 5HT1A agonist activity using a GTPγS assay. GTPγS binding for 5HT1A was determined according to the procedures of Adlersberg et al. J Neurosci. Res. 2000, 61(6): 674-685. Compounds were incubated for 30 minutes at 30° C. in 20 mM HEPES, pH7.4, 100 mM NaCl, 10 mM MgCl2, 1 mM DTT, 1 mM EDTA with human CHO cells Chinese hamster. Quantitation of bound [^35S] GTPγS was determined with agonist significance criteria of >50% increase in bound [^35S] GTPγS relative to serotonin response.

[2] = Metabolic stability in human liver microsomes; type: in vitro ADME; details: pH 7.4, 1 μM compound, 0.3 mg/mL microsomes, pH7.4, 37° C.
Procedure: Metabolic stability of selected compounds in human liver microsomes was assessed using the procedure described by Kuhnz and Gieschen, Drug Metab. Dispos. 1998, 26: 1120-1127. Compounds (1 μM) were measured by LC/MS following 0 and 60 minute incubations with human liver microsomes (0.3 mg/mL) at pH7.4 and 37° C.

[3] = Metabolic stability in rat liver microsomes; type: in vitro ADME; details: pH 7.4
[4] = system: α1-adrenergic receptor; assay: α1-Adrenergic Receptor Assay, [3H]Prazosin competition binding; design: species or system rat; details: selectivity 5HT1A over α1-adrenergic
Procedure: The determination of binding of the ligand with α1-adrenergic receptor was carried out according to the procedures described in Greengrass P and Bremner R. Eur. J. Pharmacol. 1979, 55: 323-326.
For competition binding, radiolabelled 0.25 nM [3H]Prazosin was incubated for 30 minutes at 25° C. with al transfected wisatar rat cerebral cortex cell membranes in 50 mM Tris-HCl, pH7.4, 0.1% Ascorbic acid, 10 mM Pargyline and increasing concentrations of test compound. The non specific ligand used was 0.1 uM Prazosin. Significance criteria was 50% of max stimulation or inhibition.

[5] = target: T2, dopamine D2L receptor (Homo sapiens, UniProt P14416); assay: Dopamine D2 Receptor Assay, [3H]Spiperone competition binding; details: selectivity 5HT1A over dopamine D2
T2 construct: expressed in transfected cells; host or cells: CHO cells
Procedure: The determination of binding of the ligand with dopamine D2L receptor was carried out according to the procedures described in Grandy et al. Proc. Natl. Acad. Sci. 1989, 86: 9762-9766.
For competition binding, radiolabelled 0.16 nM [3H]Spiperone was incubated for 120 minutes at 25° C. with D2L transfected human recombinant CHO cells in 50 mM Tris-HCl, pH7.4, 150 mM NaCl, 1.4 mM Ascorbic acid, 0.001% BSA and increasing concentrations of test compound. The non-specific ligand used was […] haloperidol. Significance criteria was 50% of max stimulation or inhibition.

T2 sequence (P14416 whole entry): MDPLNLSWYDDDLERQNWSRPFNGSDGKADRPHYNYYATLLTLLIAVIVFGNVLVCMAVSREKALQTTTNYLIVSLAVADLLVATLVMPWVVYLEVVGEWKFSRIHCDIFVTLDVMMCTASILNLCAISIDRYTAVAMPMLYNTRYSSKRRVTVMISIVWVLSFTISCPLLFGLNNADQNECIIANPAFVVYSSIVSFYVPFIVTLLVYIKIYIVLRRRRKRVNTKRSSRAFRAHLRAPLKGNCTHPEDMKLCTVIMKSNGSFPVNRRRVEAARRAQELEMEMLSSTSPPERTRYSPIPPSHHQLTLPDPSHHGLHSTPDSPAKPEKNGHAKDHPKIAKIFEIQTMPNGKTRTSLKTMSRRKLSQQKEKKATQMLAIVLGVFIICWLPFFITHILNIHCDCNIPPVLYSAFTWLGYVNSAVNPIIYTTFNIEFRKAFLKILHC

## COc1ccccc1N1CCN(CCc2n[nH]c(=O)n2C2CCCCCCC2)CC1 [Example 10, 4-Cyclooctyl-5-{2-[4-(2-methoxyphenyl)piperazino]ethyl}-2,4-dihydro-3H-1,2,4-triazol-3-one]
[1]
  EC50: < 200 nM

## COc1ccccc1N1CCN(CCc2n[nH]c(=O)n2Cc2ccccc2)CC1 [Example 13, 4-Benzyl-5-{2-[4-(2-methoxy-phenyl)-piperazin-1-yl]-ethyl}-2,4-dihydro-[1,2,4]triazol-3-one]
[2]
  half-life at 1 μM: ≥ 1 h
[3]
  half-life at 1 μM: ≥ 1 h

## COc1ccccc1N1CCN(CCc2n[nH]c(=O)n2CC2CCCCC2)CC1 [Example 17, 4-(Cyclohexylmethyl)-5-{2-[4-(2-methoxyphenyl)piperazino]ethyl}-2,4-dihydro-3H-1,2,4-triazol-3-one]
[2]
  half-life at 1 μM: ≥ 1 h
[3]
  half-life at 1 μM: ≥ 1 h

## COc1ccccc1N1CCN(CCc2n[nH]c(=O)n2Cc2ccc(Cl)c(Cl)c2)CC1 [Example 21, 4-(3,4-Dichloro-benzyl)-5-{2-[4-(2-methoxy-phenyl)-piperazin-1-yl]-ethyl}-2,4-dihydro-[1,2,4]triazol-3-one]
[1]
  EC50: < 200 nM

## COc1ccccc1N1CCN(CCc2n[nH]c(=O)n2Cc2cccc(F)c2)CC1 [Example 26, 4-(3-Fluoro-benzyl)-5-{2-[4-(2-methoxy-phenyl)-piperazin-1-yl]-ethyl}-2,4-dihydro-[1,2,4]triazol-3-one]
[2]
  half-life at 1 μM: ≥ 1 h
[3]
  half-life at 1 μM: ≥ 1 h

## COc1ccccc1N1CCN(CCc2n[nH]c(=O)n2C(c2ccccc2)c2ccccc2)CC1 [Example 28, 4-Benzhydryl-5-{2-[4-(2-methoxy-phenyl)-piperazin-1-yl]-ethyl}-2,4-dihydro-[1,2,4]triazol-3-one]
[1]
  EC50: < 200 nM

## COc1ccccc1N1CCN(CCc2n[nH]c(=O)n2-c2ccc(Cl)c(Cl)c2)CC1 [Example 33, 4-(3,4-Dichloro-phenyl)-5-{2-[4-(2-methoxy-phenyl)-piperazin-1-yl]-ethyl}-2,4-dihydro-[1,2,4]triazol-3-one]
[1]
  EC50: < 200 nM

## COc1ccccc1N1CCN(C(C)Cc2nn(C)c(=O)n2CC2CCCCC2)CC1 (stereo not drawn) [Example 37, 4-(Cyclohexylmethyl)-5-{2-[4-(2-methoxyphenyl)piperazin-1-yl]propyl}-2-methyl-2,4-dihydro-3H-1,2,4-triazol-3-one]
[4]
  affinity for 5HT1A relative to affinity for α1-adrenergic receptors: more than fifty times greater
[5]
  affinity for 5HT1A relative to affinity for dopamine D2 receptors: more than fifty times greater

## CC(=O)Nc1cccc(N2CCN(CCc3n[nH]c(=O)n3CC3CCCCC3)CC2)c1 [Example 38, N-[3-(4-{2-[4-(Cyclohexylmethyl)-5-oxo-4,5-dihydro-1H-1,2,4-triazol-3-yl]ethyl}piperazin-1-yl)phenyl]acetamide]
[4]
  affinity for 5HT1A relative to affinity for α1-adrenergic receptors: more than fifty times greater
[5]
  affinity for 5HT1A relative to affinity for dopamine D2 receptors: more than fifty times greater

## CC(=O)Nc1cccc(N2CCN(CCCc3n[nH]c(=O)n3CC3CCCCC3)CC2)c1 [Example 39, N-(3-{4-[3-(4-Cyclohexylmethyl-5-oxo-4,5-dihydro-1H-[1,2,4]triazol-3-yl)-propyl]-piperazin-1-yl}-phenyl)-acetamide]
[4]
  affinity for 5HT1A relative to affinity for α1-adrenergic receptors: more than fifty times greater

## CC(=O)Nc1cccc(N2CCN(CCc3nn(C)c(=O)n3CC3CCCCC3)CC2)c1 [Example 41, N-[3-(4-{2-[4-(Cyclohexylmethyl)-1-methyl-5-oxo-4,5-dihydro-1H-1,2,4-triazol-3-yl]ethyl}piperazino)phenyl]acetamide]
[1]
  EC50: < 200 nM
[5]
  affinity for 5HT1A relative to affinity for dopamine D2 receptors: more than a thousand times greater

## COc1ccccc1N1CCN(CCc2nn(C)c(=O)n2CC2CCCCC2)CC1 [Example 42, 4-(Cyclohexylmethyl)-5-{2-[4-(2-methoxyphenyl)piperazino]ethyl}-2-methyl-2,4-dihydro-3H-1,2,4-triazol-3-one]
[1]
  EC50: < 200 nM
